Assay: In vivo treatment of healthy PVG.1N rats with single substances (safety data)
Settings: i.v.; for (severe) side effects (breathing, sleep, food intake, mobility, skin, weight): Picibanil 0.35 μg/rat, PGE2 1 μg/rat, PGE1 1 μg/rat; for Flow cytometric analyzes on blood cells (Teff, Treg, CD4, CD8, NK, NKT cells) compared to placebo: data not shown
Protocol: Safety data were performed on a total of 4 rats of the healthy strain PVG.1N: they were given the clinically intended final concentrations of the single substances i.v. in the following doses: Picibanil (0.35 μg/rat), PGE2 (1 μg/rat), PGE1 (1 μg/rat) and placebo (PBS).

Row | Structure (SMILES) | (severe) side effects (breathing, sleep, food intake, mobility, skin, weight) | Flow cytometric analyzes on blood cells (Teff, Treg, CD4, CD8, NK, NKT cells) compared to placebo
1 | CCCCC[C@H](O)/C=C/[C@H]1[C@H](O)CC(=O)[C@@H]1C/C=C\CCCC(=O)O [PGE2, Prostaglandin E2] | no (severe) side effects | no difference compared to the placebo controls
2 | CCCCC[C@H](O)/C=C/[C@H]1[C@H](O)CC(=O)[C@@H]1CCCCCCC(=O)O [PGE1, Alprostadil] | no (severe) side effects | no difference compared to the placebo controls

Reference: patent US10912820B2, “Use of immunomodulatory kits for immunotherapeutic treatment of patients with myeloid leukemias” (Modiblast Pharma GmbH, priority 2014, dated 2021)
